Measurements from patent US20210070748A1, “INHIBITORS OF BRUTONS TYROSINE KINASE” (Pharmacyclics LLC, priority 2015, published 2021).

Assays:
Type in all cases: biochemical
JAK3 = target: T1, JAK3 (Homo sapiens, UniProt P52333); test: Inhibition of a panel of kinases, in vitro HotSpot kinase assay: JAK3; details: E compounds, Table 17; read-out: IC50 JAK3
T1 sequence (P52333 1-1124): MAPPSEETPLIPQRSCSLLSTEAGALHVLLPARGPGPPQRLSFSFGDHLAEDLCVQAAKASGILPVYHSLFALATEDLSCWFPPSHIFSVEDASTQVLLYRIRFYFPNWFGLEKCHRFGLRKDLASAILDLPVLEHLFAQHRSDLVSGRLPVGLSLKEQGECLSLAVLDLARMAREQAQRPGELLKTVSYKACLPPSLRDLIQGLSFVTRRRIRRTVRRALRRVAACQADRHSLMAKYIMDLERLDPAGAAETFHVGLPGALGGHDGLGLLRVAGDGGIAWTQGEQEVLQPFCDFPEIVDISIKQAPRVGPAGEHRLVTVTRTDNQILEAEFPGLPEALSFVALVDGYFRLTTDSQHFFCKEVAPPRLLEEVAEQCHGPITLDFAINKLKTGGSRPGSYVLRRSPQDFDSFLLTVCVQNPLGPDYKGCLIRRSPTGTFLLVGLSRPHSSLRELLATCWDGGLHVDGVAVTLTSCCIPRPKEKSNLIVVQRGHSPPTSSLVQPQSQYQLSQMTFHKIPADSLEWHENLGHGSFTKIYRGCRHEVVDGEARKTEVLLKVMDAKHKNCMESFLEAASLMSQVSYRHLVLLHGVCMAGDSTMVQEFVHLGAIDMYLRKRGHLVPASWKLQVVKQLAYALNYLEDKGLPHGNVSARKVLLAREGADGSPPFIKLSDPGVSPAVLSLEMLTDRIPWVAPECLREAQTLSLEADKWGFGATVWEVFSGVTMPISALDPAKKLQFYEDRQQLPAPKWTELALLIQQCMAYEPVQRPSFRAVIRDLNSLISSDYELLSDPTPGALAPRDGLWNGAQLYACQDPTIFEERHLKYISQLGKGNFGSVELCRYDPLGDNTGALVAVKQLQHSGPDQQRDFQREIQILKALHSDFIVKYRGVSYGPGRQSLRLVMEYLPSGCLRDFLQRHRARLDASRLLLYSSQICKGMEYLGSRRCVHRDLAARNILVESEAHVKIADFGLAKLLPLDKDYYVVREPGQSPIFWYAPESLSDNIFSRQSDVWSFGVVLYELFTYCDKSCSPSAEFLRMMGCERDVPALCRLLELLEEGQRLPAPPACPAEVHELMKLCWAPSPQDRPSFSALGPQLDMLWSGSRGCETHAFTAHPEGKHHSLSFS

SRC = SRC (Homo sapiens, UniProt P12931); test: Inhibition of a panel of kinases, in vitro HotSpot kinase assay: SRC; details: E compounds, Table 17
Chain of SRC (P12931 whole entry): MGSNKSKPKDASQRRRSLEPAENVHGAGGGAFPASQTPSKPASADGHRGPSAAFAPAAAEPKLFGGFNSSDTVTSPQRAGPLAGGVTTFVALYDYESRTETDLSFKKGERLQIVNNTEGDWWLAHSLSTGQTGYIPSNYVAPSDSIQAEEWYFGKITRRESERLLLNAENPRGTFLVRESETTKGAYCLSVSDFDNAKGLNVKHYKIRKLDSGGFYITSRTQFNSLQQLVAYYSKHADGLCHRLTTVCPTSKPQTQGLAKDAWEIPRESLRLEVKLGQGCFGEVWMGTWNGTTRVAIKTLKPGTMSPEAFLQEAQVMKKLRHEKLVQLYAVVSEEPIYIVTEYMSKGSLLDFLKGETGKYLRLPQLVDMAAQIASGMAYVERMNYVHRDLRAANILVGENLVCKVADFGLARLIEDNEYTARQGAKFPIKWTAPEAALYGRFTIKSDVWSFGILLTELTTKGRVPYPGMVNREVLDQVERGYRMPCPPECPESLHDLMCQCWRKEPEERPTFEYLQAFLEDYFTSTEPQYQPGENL
Procedure: (§1) The degree of inhibition of a panel of kinases is determined using the in vitro HotSpot kinase assay (purified enzymes, ^33P-ATP, an appropriate substrate and 1 μM ATP).

LCK = LCK (Homo sapiens, UniProt P06239); test: Inhibition of a panel of kinases, in vitro HotSpot kinase assay: LCK; details: E compounds, Table 17; read-out: IC50 LCK
Chain of LCK (P06239 whole entry): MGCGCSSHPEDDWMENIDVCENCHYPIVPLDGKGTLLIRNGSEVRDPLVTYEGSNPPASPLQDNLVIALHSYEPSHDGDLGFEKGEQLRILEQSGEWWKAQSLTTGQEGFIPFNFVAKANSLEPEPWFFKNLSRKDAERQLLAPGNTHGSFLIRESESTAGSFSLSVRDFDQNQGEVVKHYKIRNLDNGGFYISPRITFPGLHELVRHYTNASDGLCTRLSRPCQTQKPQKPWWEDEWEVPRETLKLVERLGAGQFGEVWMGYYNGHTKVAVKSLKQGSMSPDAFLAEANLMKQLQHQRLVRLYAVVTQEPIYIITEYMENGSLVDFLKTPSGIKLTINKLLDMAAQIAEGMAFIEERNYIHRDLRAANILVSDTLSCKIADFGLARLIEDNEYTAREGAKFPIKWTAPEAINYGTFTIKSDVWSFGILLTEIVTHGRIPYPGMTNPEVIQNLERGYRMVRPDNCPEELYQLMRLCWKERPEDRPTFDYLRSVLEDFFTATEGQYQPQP

BTK-WT = target: T2, BTK-WT (Homo sapiens, UniProt Q06187); test: Btk in vitro inhibitory activity (one of Method A TR-FRET, Method B electrophoretic mobility shift, Method C radiometric filter binding); details: E compounds, Table 17; read-out: IC50 BTK-WT
T2 construct: purified from insect cells as a full-length construct containing an N-terminal 6X-His tag; His6 (N); made in house; host or cells: insect cells (baculovirus Sf21 in Method B)
T2 sequence (Q06187 whole entry): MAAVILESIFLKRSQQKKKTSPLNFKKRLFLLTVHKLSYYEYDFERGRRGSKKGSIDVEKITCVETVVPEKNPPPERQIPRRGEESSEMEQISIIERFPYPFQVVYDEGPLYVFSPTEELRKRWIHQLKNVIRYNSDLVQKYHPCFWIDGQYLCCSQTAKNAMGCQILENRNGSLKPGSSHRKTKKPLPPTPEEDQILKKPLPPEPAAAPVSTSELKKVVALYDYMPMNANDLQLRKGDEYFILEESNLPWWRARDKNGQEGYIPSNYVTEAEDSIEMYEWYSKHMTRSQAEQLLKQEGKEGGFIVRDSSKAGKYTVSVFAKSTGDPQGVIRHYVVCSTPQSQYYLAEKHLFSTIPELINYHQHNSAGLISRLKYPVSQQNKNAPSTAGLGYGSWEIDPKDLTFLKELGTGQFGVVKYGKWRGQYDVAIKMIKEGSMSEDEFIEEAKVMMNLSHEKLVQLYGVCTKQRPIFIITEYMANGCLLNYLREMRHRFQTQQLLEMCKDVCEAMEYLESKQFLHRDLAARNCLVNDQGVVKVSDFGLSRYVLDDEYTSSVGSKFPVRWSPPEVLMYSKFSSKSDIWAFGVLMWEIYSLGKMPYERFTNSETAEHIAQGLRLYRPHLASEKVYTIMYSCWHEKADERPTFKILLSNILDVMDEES

EGFR = EGFR (Homo sapiens, UniProt P00533); test: Inhibition of a panel of kinases, in vitro HotSpot kinase assay: EGFR; details: E compounds, Table 17
Chain of EGFR (P00533 25-1210): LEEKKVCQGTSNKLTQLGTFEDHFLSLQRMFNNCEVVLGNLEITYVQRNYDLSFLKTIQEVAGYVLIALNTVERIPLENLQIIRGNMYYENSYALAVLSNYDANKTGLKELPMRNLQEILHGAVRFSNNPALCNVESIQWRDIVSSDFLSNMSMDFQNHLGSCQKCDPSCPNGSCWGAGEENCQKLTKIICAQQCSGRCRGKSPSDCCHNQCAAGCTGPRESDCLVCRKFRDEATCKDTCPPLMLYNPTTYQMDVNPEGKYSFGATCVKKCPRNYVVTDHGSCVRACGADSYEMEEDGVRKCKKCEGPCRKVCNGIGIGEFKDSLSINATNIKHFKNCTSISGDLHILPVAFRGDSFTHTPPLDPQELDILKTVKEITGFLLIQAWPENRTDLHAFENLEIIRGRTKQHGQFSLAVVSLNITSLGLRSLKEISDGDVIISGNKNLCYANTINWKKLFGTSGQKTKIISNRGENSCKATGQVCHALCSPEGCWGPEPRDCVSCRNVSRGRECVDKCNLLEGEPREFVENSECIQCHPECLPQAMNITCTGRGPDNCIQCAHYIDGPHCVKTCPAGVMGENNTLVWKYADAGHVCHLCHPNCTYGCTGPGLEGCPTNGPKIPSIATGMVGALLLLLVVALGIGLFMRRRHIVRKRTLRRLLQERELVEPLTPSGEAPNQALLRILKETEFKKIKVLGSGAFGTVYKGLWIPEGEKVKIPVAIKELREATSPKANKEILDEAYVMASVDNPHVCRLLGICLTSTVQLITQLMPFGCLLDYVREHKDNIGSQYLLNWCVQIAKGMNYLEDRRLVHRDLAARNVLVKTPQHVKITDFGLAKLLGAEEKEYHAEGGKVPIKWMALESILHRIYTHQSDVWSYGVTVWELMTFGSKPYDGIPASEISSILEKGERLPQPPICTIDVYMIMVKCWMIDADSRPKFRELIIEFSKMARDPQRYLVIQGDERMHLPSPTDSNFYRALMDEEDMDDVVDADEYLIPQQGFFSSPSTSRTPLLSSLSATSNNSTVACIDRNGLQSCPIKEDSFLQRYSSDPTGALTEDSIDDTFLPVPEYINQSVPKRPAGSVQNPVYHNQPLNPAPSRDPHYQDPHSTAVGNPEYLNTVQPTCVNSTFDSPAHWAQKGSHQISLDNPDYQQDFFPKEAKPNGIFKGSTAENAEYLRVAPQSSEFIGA
Procedure: as §1

Row | SMILES | IC50 (JAK3) [nM] | IC50 (SRC) [nM] | IC50 (LCK) [nM] | IC50 (BTK-WT) [nM] | IC50 (EGFR) [nM]
1 | C[C@@H]1[C@H](NC(=O)c2ccc(C3CC3)cc2)CCCN1c1cnc(C(N)=O)c(Nc2ccc(N3CCN(C4COC4)C[C@@H]3C)cc2)n1 [Example E-142, 5-((2R,3R)-3-(4-cyclopropylbenzamido)-2-methylpiperidin-1-yl)-3-((4-((S)-2-methyl-4-(oxetan-3-yl)piperazin-1-yl)phenyl)amino)pyrazine-2-carboxamide] | 1000 to 10000 | 10 to 100 | 10 to 100 | ≤ 10 | 1000 to 10000
2 | C[C@@H]1[C@H](NC(=O)c2ccc(C(C)(C)N3CCCC3)cc2)CCCN1c1cnc(C(N)=O)c(Nc2cnn(C)c2)n1 [Example E-143, 3-((1-methyl-1H-pyrazol-4-yl)amino)-5-((2R,3R)-2-methyl-3-(4-(2-(pyrrolidin-1-yl)propan-2-yl)benzamido)piperidin-1-yl)pyrazine-2-carboxamide] | 100 to 1000 | 10 to 100 | 10 to 100 | ≤ 10 | > 10000
3 | C[C@@H]1[C@H](NC(=O)c2ccc(C3CC3)cc2)CCCN1c1cnc(C(N)=O)c(Nc2cnc(C3CCOCC3)nc2)n1 [Example E-144, 5-((2R,3R)-3-(4-cyclopropylbenzamido)-2-methylpiperidin-1-yl)-3-((2-(tetrahydro-2H-pyran-4-yl)pyrimidin-5-yl)amino)pyrazine-2-carboxamide] | > 10000 | 100 to 1000 | 100 to 1000 | 10 to 100 | > 10000
4 | C[C@@H]1[C@H](NC(=O)c2cccc(C(C)(C)O)c2)CCCN1c1cnc(C(N)=O)c(Nc2cnn(C)c2)n1 [Example E-145, 5-((2R,3R)-3-(3-(2-hydroxypropan-2-yl)benzamido)-2-methylpiperidin-1-yl)-3-((1-methyl-1H-pyrazol-4-yl)amino)pyrazine-2-carboxamide] | 100 to 1000 | 10 to 100 | 10 to 100 | ≤ 10 | 100 to 1000
5 | C[C@@H]1[C@H](NC(=O)c2cc(C(C)(C)C)nn2C)CCCN1c1cnc(C(N)=O)c(Nc2cnn(C)c2)n1 [Example E-146, 5-((2R,3R)-3-(3-(tert-butyl)-1-methyl-1H-pyrazole-5-carboxamido)-2-methylpiperidin-1-yl)-3-((1-methyl-1H-pyrazol-4-yl)amino)pyrazine-2-carboxamide] | 1000 to 10000 | 10 to 100 | 10 to 100 | ≤ 10 | 1000 to 10000
6 | C[C@@H]1[C@H](NC(=O)c2ccc(C(C)(C)O)cc2)CCCN1c1cnc(C(N)=O)c(Nc2ccc(C3(C)CCN(C4CC4)CC3)cc2)n1 [Example E-147, 3-((4-(1-cyclopropyl-4-methylpiperidin-4-yl)phenyl)amino)-5-((2R,3R)-3-(4-(2-hydroxypropan-2-yl)benzamido)-2-methylpiperidin-1-yl)pyrazine-2-carboxamide] | 100 to 1000 | ≤ 10 | < 10 | ≤ 10 | 100 to 1000
7 | C[C@@H]1[C@H](NC(=O)c2ccc(C3CC3)cc2)CCCN1c1cnc(C(N)=O)c(Nc2ccc(N3CCN(C)C[C@@H]3C)cc2)n1 [Example E-148, 5-((2R,3R)-3-(4-cyclopropylbenzamido)-2-methylpiperidin-1-yl)-3-((4-((S)-2,4-dimethylpiperazin-1-yl)phenyl)amino)pyrazine-2-carboxamide] | 100 to 1000 | 10 to 100 | 10 to 100 | ≤ 10 | 100 to 1000
8 | C[C@@H]1[C@H](NC(=O)c2noc(C(C)(C)C)n2)CCCN1c1cnc(C(N)=O)c(Nc2cnn(C)c2)n1 [Example E-149, 5-(tert-butyl)-N-((2R,3R)-1-(5-carbamoyl-6-((1-methyl-1H-pyrazol-4-yl)amino)pyrazin-2-yl)-2-methylpiperidin-3-yl)-1,2,4-oxadiazole-3-carboxamide] | 1000 to 10000 | 1000 to 10000 | 1000 to 10000 | 100 to 1000 | 1000 to 10000
9 | Cn1cc(Nc2nc(N3CCCC(C)(NC(=O)c4ccc(C5CC5)cc4)C3)cnc2C(N)=O)cn1 (stereo not shown) [Example E-150, 5-(3-(4-cyclopropylbenzamido)-3-methylpiperidin-1-yl)-3-((1-methyl-1H-pyrazol-4-yl)amino)pyrazine-2-carboxamide] | 1000 to 10000 | 1000 to 10000 | 1000 to 10000 | 100 to 1000 | > 10000
10 | CCC(O)(CC)c1ccc(C(=O)N[C@@H]2CCCN(c3cnc(C(N)=O)c(Nc4cnn(C)c4)n3)[C@@H]2C)cc1 [Example E-151, 5-((2R,3R)-3-(4-(3-hydroxypentan-3-yl)benzamido)-2-methylpiperidin-1-yl)-3-((1-methyl-1H-pyrazol-4-yl)amino)pyrazine-2-carboxamide] | 100 to 1000 | 10 to 100 | 100 to 1000 | ≤ 10 | 100 to 1000
11 | Cc1cc(C(=O)N[C@@H]2CCCN(c3cnc(C(N)=O)c(Nc4cnn(C)c4)n3)[C@@H]2C)ccc1C(C)(C)O [Example E-152, 5-((2R,3R)-3-(4-(2-hydroxypropan-2-yl)-3-methylbenzamido)-2-methylpiperidin-1-yl)-3-((1-methyl-1H-pyrazol-4-yl)amino)pyrazine-2-carboxamide] | 100 to 1000 | 10 to 100 | 10 to 100 | ≤ 10 | 1000 to 10000
12 | C[C@@H]1[C@H](NC(=O)c2ccc3c(c2)C(C)(C)OC3)CCCN1c1cnc(C(N)=O)c(Nc2cnn(C)c2)n1 [Example E-153, 5-((2R,3R)-3-(3,3-dimethyl-1,3-dihydroisobenzofuran-5-carboxamido)-2-methylpiperidin-1-yl)-3-((1-methyl-1H-pyrazol-4-yl)amino)pyrazine-2-carboxamide] | 1000 to 10000 | 10 to 100 | 10 to 100 | ≤ 10 | 1000 to 10000
13 | C[C@@H]1[C@H](NC(=O)c2ccc(-c3ncco3)cc2)CCCN1c1cnc(C(N)=O)c(Nc2cnn(C)c2)n1 [Example E-154, 3-((1-methyl-1H-pyrazol-4-yl)amino)-5-((2R,3R)-2-methyl-3-(4-(oxazol-2-yl)benzamido)piperidin-1-yl)pyrazine-2-carboxamide] | 100 to 1000 | 10 to 100 | 10 to 100 | ≤ 10 | 1000 to 10000
14 | Cc1nc(-c2ccc(C(=O)N[C@@H]3CCCN(c4cnc(C(N)=O)c(Nc5cnn(C)c5)n4)[C@@H]3C)cc2)cs1 [Example E-155, 3-((1-methyl-1H-pyrazol-4-yl)amino)-5-((2R,3R)-2-methyl-3-(4-(2-methylthiazol-4-yl)benzamido)piperidin-1-yl)pyrazine-2-carboxamide] | 100 to 1000 | 10 to 100 | 10 to 100 | ≤ 10 | 100 to 1000
